Source: patent publication US20120178738A1, “DIBENZO [B,F] [1,4]OXAZAPINE COMPOUNDS” (ARYX THERAPEUTICS, INC., priority 2007, published 2012)

Columns and labels:
human 5HT2C receptors = molecular target: T1, human 5HT2C receptors (Homo sapiens, UniProt P28335); test: h5-HT2C receptor radioligand binding ([3H]Mesulergine); conditions: for binding to 5-HT2c: in words; for Ki: pKi reported on a scale of 1 through 5
T1 construct: expressed in transfected cells; host or cells: human embryo kidney cells (membranes)
T1 sequence (P28335 33-458): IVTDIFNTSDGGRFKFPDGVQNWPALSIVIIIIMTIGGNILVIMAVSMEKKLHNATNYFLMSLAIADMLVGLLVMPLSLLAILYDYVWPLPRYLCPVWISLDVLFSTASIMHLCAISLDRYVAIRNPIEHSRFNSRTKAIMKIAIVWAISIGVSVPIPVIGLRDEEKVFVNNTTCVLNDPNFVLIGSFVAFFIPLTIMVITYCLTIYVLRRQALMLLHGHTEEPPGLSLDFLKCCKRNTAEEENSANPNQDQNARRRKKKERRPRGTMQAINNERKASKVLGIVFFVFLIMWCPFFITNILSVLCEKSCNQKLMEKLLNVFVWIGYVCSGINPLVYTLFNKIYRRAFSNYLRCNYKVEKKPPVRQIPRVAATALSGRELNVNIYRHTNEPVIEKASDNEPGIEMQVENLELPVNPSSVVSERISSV
How it was run: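 Test compound affinity was derived from concentration-dependent displacement of fixed [3H]mesulergine at equilibrium, after subtracting nonspecific binding measured with a reference blocker. Bound and free radioligand were separated by filtration of tissue or plasma-membrane preparations.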

[1] = tested on: locomotor activity in rats; test: Spontaneous locomotor activity (open field); format: in vivo
Experimental: One of the common side effects of many antipsychotic drugs is sedation. It has been shown that agents that have sedative actions in man have the same effect in animals. The purpose of these studies was to evaluate the effect of test compounds on the locomotor activity in rats, which is used to assess the sedative properties of antipsychotic compounds.
The animals (male Sprague Dawley rats, about 300-450 g; Charles River) were assessed for ambulation for 30 minutes before and for 30 min after vehicle or test compounds. […] Locomotor activity is quantified by the number of photobeams crossed by the animal over several 3×10 min intervals.

[2] = tested on: NMDA antagonist-induced deficits in prepulse inhibition in rats; test: Prepulse inhibition (PPI), NMDA antagonist (PCP)-induced deficit; conditions: ip 45 min before, PCP 1.5 mg/kg s.c.
human M3 receptors = molecular target: T2, human M3 receptors (Homo sapiens, UniProt P20309); test: hM3 receptor radioligand binding ([3H]NMS); conditions: for affinity to M3 receptors: in words; for Ki: pKi reported on a scale of 1 through 5, read-out: M3 (pKi) (converted)
T2 construct: expressed in transfected cells; host or cells: Chinese hamster ovary cells (membranes)
How it was run: (§1)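 Equilibrium competition against a fixed radioligand level, using membranes or tissues expressing the receptor and a concentration series of unlabelled compound. Binding was quantified from filtration-separated, nonspecific-corrected concentration-response relationships.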

human 5HT7 receptors = molecular target: T3, human 5HT7 receptors (Homo sapiens, UniProt P34969); test: h5-HT7 receptor radioligand binding ([3H]5-CT); conditions: pKi reported on a scale of 1 through 5; read-out: 5HT7 (pKi) (converted)
T3 construct: expressed in transfected cells; host or cells: Chinese hamster ovary cells (membranes)
How it was run: as §1

pig liver esterase = test: Metabolism by pig liver esterase with and without human plasma proteins; format: in vitro ADME
Experimental: The esterase-mediated metabolism of these compounds was studied using commercially available pig liver esterase in the presence and absence of human plasma proteins. The disappearance of parent was monitored over the time course of the incubations using a LC-UV detection system.
A stock solution and working stock solution was prepared for each proprietary compound as described for the human liver microsomal incubations. Working solutions of pig liver esterase in potassium phosphate buffer (10 mM, pH 7.4) and pig liver esterase in human plasma protein were prepared by dissolving pig liver esterase (2.51 mg) in the phosphate buffer or plasma protein solutions, respectively.
A set of three Eppendorf microfuge tubes (1.5 mL) was appropriately labeled. To each tube was added 1.5 mL of phosphate buffer, pig liver esterase in buffer, or pig liver esterase in human plasma protein solution. These solutions were pre-incubated (37° C., 900 rpm) and the reactions were initiated by adding an aliquot (37.5 μL) of the working solution of proprietary compound to each tube. An aliquot (100 μL) from each tube was removed at time 0, 5, 30, 60, and 120 min and added to a tube containing acetonitrile (200 μL) to stop the reaction.
The samples were centrifuged at 14000 g for 15 minutes at 4° C. The supernatant was transferred to clean labeled HPLC injection vials and stored at −80° C. until analyzed. An aliquot of the supernatant (25 μL) was injected onto the LC-UV system for analysis.

[3] = Metabolism in pooled human liver microsomes; format: in vitro ADME; conditions: for HLMs Enzyme: enzyme type metabolising the compound in HLMs (with/without NADPH); for half-life: pH 7.4, pooled human liver microsomes, disappearance of parent, read-out: HLMs t1/2
Experimental: Compounds were incubated in pooled human liver microsomes (HLMs) in the presence or absence of an NADPH-generating system. NADPH is required for the activity of cytochrome P450 (CYP) and other oxidative enzymes present in HLMs, but not for esterase activity. An additional incubation was carried out in the absence of HLM to assess compound stability. The disappearance of parent and the appearance of the corresponding acid metabolite were monitored over the time course of the incubations using LC-MS/MS.
A stock solution (20 mM) of each proprietary compound in DMSO was prepared and stored at −20° C. until needed. A working stock solution (0.2 mM) was prepared for each proprietary compound by adding an aliquot of the stock solution (10 μL) to acetonitrile (990 μL).
An aliquot of the HLM solution was removed from the −80° C. freezer and placed on ice. Tris Buffer (50 mM, pH 7.4) containing MgCl2 (hexahydrate, 5 mM) was pre-incubated in a 37° C. water bath. A set of Eppendorf microfuge tubes (1.5 mL) was appropriately labeled. To each tube was added Tris buffer with or without the NADPH generating system. An aliquot of pooled HLMs was added to all the incubations except those that were the buffer control.
Tubes were preincubated for 5 min in a shaking incubator bath (37° C., 900 rpm) and the reaction was initiated by adding an aliquot of the proprietary working solution (5 μL). The additions were timed carefully in order to coordinate the sample collections below. A small aliquot (50 μL) was removed at […] and delivered to the respective tubes containing dextrorphan (100 μL of 0.5 μg/mL solution) dissolved in methanol or acetonitrile. The samples were centrifuged at 14000 g for 15 minutes at 4° C. The supernatant was transferred to clean labeled HPLC injection vials and stored at −80° C. until analyzed. An aliquot of the supernatant (25 μL) was added to water (75 μL), mixed and injected onto the LC-MS/MS system for analysis. Results for some compounds of the invention can be found below in the table in Example 20.

[4] = pig liver esterase in potassium phosphate buffer, pH 7.4, pig liver esterase in phosphate buffer, no plasma protein
[5] = pig, pig liver esterase in human plasma protein solution

T3 sequence (P34969 whole entry): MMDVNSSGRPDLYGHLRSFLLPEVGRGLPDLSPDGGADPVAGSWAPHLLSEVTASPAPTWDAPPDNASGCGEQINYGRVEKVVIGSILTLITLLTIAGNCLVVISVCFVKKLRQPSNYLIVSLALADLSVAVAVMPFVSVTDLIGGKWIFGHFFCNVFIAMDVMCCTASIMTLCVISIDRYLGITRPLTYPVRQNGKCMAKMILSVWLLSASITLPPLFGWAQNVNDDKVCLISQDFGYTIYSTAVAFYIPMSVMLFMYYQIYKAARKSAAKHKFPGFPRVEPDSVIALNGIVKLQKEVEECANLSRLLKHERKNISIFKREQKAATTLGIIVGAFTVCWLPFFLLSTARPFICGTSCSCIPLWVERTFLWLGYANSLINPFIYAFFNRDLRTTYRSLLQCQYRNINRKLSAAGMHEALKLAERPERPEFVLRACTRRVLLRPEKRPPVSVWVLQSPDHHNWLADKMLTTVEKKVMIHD
T2 sequence (P20309 whole entry): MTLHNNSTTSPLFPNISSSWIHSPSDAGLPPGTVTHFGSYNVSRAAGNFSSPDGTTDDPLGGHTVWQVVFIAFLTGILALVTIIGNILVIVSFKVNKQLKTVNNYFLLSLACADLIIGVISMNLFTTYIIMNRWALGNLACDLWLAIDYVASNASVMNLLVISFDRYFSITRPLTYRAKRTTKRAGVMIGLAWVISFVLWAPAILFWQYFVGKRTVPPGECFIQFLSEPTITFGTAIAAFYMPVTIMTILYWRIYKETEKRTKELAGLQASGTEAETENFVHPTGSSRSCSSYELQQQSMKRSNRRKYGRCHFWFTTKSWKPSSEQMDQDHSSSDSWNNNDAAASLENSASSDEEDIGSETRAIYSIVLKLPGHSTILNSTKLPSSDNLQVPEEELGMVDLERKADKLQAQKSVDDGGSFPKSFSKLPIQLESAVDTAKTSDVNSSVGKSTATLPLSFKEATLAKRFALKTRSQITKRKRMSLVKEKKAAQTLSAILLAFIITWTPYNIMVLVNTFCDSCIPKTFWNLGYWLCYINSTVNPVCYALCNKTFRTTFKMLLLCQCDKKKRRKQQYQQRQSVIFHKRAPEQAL

Structure (SMILES) | binding to 5-HT2c (human 5HT2C receptors) | Ki (human 5HT2C receptors) | locomotor activity in rat (open field) ([1]; 10 mg/kg) | NMDA antagonist-induced deficits in prepulse inhibition [2] | affinity to M3 receptors (human M3 receptors) | Ki (human M3 receptors) | affinity for the 5-HT2c receptors, fold lower than clozapine (human 5HT2C receptors; relative to clozapine) | Ki (human 5HT7 receptors) | locomotor activity in rat (open field) ([1]; 0.03-10 mg/kg) | half-life at 4.9 µM (pig liver esterase; [4]) | half-life at 4.9 µM (pig liver esterase; [5]) | HLMs Enzyme [3] | half-life [3] | Pig Liver Esterase (t1/2 min.) (+) plasma (pig liver esterase; pig liver esterase in human plasma protein solution) | Pig Liver Esterase (t1/2 min.) (−) plasma (pig liver esterase; pig liver esterase in phosphate buffer, no plasma protein)
O=C(O)C[C@H]1CN(C2=Nc3cc(Cl)ccc3Oc3ccccc32)CCN1 [Compound Q, (S,E)-2-(4-(8-chlorodibenzo[b,f][1,4]oxazepin-11-yl)piperazin-2-yl)acetic acid] | bind | 100 to 977 nM | did not reduce | Restore | very low affinity | > 10000 nM | – | – | – | – | – | – | – | – | –
CCOC(=O)C[C@H]1CN(C2=Nc3cc(Cl)ccc3Oc3ccccc32)CCN1 [Compound K, (S,E)-ethyl 2-(4-(8-chlorodibenzo[b,f][1,4]oxazepin-11-yl)piperazin-2-yl)acetate] | bind | 10 to 97.7 nM | – | Restore | very low affinity | > 10000 nM | 1.2 fold | 631 to 1550 nM | did not reduce | – | – | – | – | – | –
O=C(C[C@H]1CN(C2=Nc3cc(Cl)ccc3Oc3ccccc32)CCN1)O[C@H]1CCOC1 [EQ, (S)-tetrahydrofuran-3-yl 2-((S)-4-((E)-8-chlorodibenzo[b,f][1,4]oxazepin-11-yl)piperazin-2-yl)acetate] | – | – | – | – | – | – | – | – | – | 5 min | 30 min | Esterase | 15 min | – | –
CCC(C)OC(=O)C[C@H]1CN(C2=Nc3cc(Cl)ccc3Oc3ccccc32)CCN1C (stereo partly drawn) [DY, sec-butyl 2-((S)-4-((E)-8-chlorodibenzo[b,f][1,4]oxazepin-11-yl)-1-methylpiperazin-2-yl)acetate] | – | 100 to 977 nM | – | – | – | > 10000 nM | – | > 10000 nM | – | < 5 min | 30 min | Esterase | < 5 min | – | –
CN1CCN(C2=Nc3cc(Cl)ccc3Oc3ccccc32)C[C@@H]1CC(=O)NCC(F)(F)C(F)(F)F [EU, (S,E)-2-(4-(8-chlorodibenzo[b,f][1,4]oxazepin-11-yl)-1-methylpiperazin-2-yl)-N-(2,2,3,3,3-pentafluoropropyl)acetamide] | – | – | – | – | – | – | – | – | – | – | – | – | 60 min | Stable | Stable
CC(C)OC(=O)CC1CN(C2=Nc3cc(Cl)ccc3Oc3ccccc32)CCN1 (centres unmarked) [L, (E)-isopropyl 2-(4-(8-chlorodibenzo[b,f][1,4]oxazepin-11-yl)piperazin-2-yl)acetate] | – | 10 to 97.7 nM | – | – | – | > 10000 nM | – | – | – | < 5 min | 30 min | – | 30 min | – | –
O=C(C[C@H]1CN(C2=Nc3cc(Cl)ccc3Oc3ccccc32)CCN1)OC1CCCC1 [DR, (S,E)-cyclopentyl 2-(4-(8-chlorodibenzo[b,f][1,4]oxazepin-11-yl)piperazin-2-yl)acetate] | – | 10 to 97.7 nM | – | – | – | > 10000 nM | – | 1580 to 3890 nM | – | < 5 min | 15 min | Esterase | 30 min | – | –
O=C(C[C@H]1CN(C2=Nc3cc(Cl)ccc3Oc3ccccc32)CCN1)OC1CCOCC1 [DV, (S,E)-tetrahydro-2H-pyran-4-yl 2-(4-(8-chlorodibenzo[b,f][1,4]oxazepin-11-yl)piperazin-2-yl)acetate] | – | 10 to 97.7 nM | – | – | – | > 10000 nM | – | 1580 to 3890 nM | – | < 5 min | 15 min | Esterase | 60 min | – | –
CCOC(=O)CC1CN(C2=Nc3cc(Cl)ccc3Oc3ccccc32)CCN1 (centres unmarked) [A, (E)-ethyl 2-(4-(8-chlorodibenzo[b,f][1,4]oxazepin-11-yl)piperazin-2-yl)acetate] | – | 10 to 97.7 nM | – | – | – | > 10000 nM | – | – | – | < 5 min | 15 min | Esterase | 30 min | – | –
CCOC(=O)CC1CN(C2=Nc3ccc(F)cc3Oc3ccccc32)CCN1 (centres unmarked) [J, (E)-ethyl 2-(4-(7-fluorodibenzo[b,f][1,4]oxazepin-11-yl)piperazin-2-yl)acetate] | – | 100 to 977 nM | – | – | – | > 10000 nM | – | – | – | < 5 min | 15 min | Esterase | 10 min | – | –
CC(C)OC(=O)CC1CN(C2=Nc3ccc(F)cc3Oc3ccccc32)CCN1 (centres unmarked) [M, (E)-isopropyl 2-(4-(7-fluorodibenzo[b,f][1,4]oxazepin-11-yl)piperazin-2-yl)acetate] | – | 100 to 977 nM | – | – | – | > 10000 nM | – | – | – | < 5 min | 15 min | – | 30 min | – | –
CCOC(=O)C[C@H]1CN(C2=Nc3cc(Cl)ccc3Oc3ccccc32)CCN1CCC(C)C [ER, (S,E)-ethyl 2-(4-(8-chlorodibenzo[b,f][1,4]oxazepin-11-yl)-1-isopentylpiperazin-2-yl)acetate] | – | – | – | – | – | – | – | – | – | < 5 min | 60 min | Esterase | 5 min | – | –
